Test results: patent US8455665B2, “3-phenoxymethylpyrrolidine compounds” (Theravance, Inc., priority 2009, dated 2013)

Columns and labels:
Design in all cases: expressed in transfected cells; host or cells: HEK-293
SERT [1] = molecular target: T1, SERT (Homo sapiens, UniProt P31645); assay: hSERT neurotransmitter uptake assay (3H-5-HT); format: cell-based; conditions: serotonin reuptake inhibition, HEK-293 hSERT cells, 3H-5-HT (no asterisk); for IC50: read-out: SERT pIC50 (converted)
Protocol: (§1) Neurotransmitter uptake assays were used to measure inhibition of ^3H-serotonin (^3H-5-HT), ^3H-norepinephrine (^3H-NE), and ^3H-dopamine (^3H-DA) uptake into cells expressing the respective transporter (hSERT, hNET or hDAT) in order to determine the pIC50 values of test compounds at the transporters.
(§2) HEK-293 derived cell lines stably-transfected with hSERT, hNET, or hDAT, respectively, were grown in DMEM medium supplemented with 10% dialyzed FBS (for hSERT) or FBS (for hNET and hDAT), 100 μg/ml penicillin, 100 μg/ml streptomycin, 2 mM L-glutamine and 250 μg/ml of the aminoglycoside antibiotic G418 (for hSERT and hNET) or 800 ug/ml (for hDAT), in a 5% CO2 humidified incubator at 37° C. When cultures reached 80% confluence, the cells were washed thoroughly in PBS (without Ca^2+ and Mg^2+) and lifted with 5 mM EDTA in PBS. Cells were harvested by centrifugation at 1100 rpm for 5 minutes, washed once by resuspension in PBS, then centrifuged. The supernatant was discarded and the cell pellet resuspended, by gentle trituration, in room temperature Krebs-Ringer bicarbonate buffer containing HEPES (10 mM), CaCl2 (2.2 mM), ascorbic acid (200 μM) and pargyline (200 μM), pH 7.4. The final concentration of cells in the cell suspension was 7.5×10^4 cells/ml, 1.25×10^5 cells/ml, and 5.0×10^4 cells/ml for SERT, NET, and DAT cell lines, respectively.
(§3) Neurotransmitter uptake assays were performed in a 96-well assay plate in a total volume of 400 μl assay buffer (Krebs-Ringer bicarbonate buffer containing HEPES (10 mM), CaCl2 (2.2 mM), ascorbic acid (200 μM) and pargyline (200 μM), pH 7.4) with 1.5×10^4 and 2.5×10^4 cells, for SERT, NET, and DAT, respectively. […] Stock solutions (10 mM in DMSO) of test compound were prepared and serial dilutions prepared using 50 mM Tris-HCl, 120 mM NaCl, 5 mM KCl, pH 7.4, 0.1% BSA, 400 μM ascorbic acid. Test compounds were incubated for 30 minutes at 37° C. with the respective cells, prior to addition of radiolabeled neurotransmitter, ^3H-5-HT (20 nM final concentration), ^3H-NE (50 nM final concentration) or ^3H-DA (100 nM final concentration). Non-specific neurotransmitter uptake was determined in the presence of 2.5 μM duloxetine, 2.5 μM desipramine, or 10 uM GBR-12909 (each in Dilution Buffer) for the hSERT, hNET, or hDAT assays, respectively.
(§4) Following a 10 minute incubation, at 37° C., with radioligand, the cells were harvested by rapid filtration over a 96-well UniFilter GF/B plate, pretreated with 1% BSA, and washed 6 times with 650 μl wash buffer (ice cold PBS). Plates were dried overnight at 37° C., ˜45 μl of MicroScint™-20 (Perkin Elmer) added and incorporated radioactivity quantitated via liquid scintillation spectroscopy Inhibition curves were analyzed using GraphPad Prism Software package (GraphPad Software, Inc., San Diego, Calif.). IC50 values were generated from concentration response curves using the Sigmoidal Dose Response (variable slope) algorithm in Prism GraphPad.

NET [2] = molecular target: T2, NET (Homo sapiens, UniProt P23975); assay: hNET neurotransmitter uptake assay (3H-NE); format: cell-based; conditions: norepinephrine reuptake inhibition, HEK-293 hNET cells, 3H-NE (no asterisk); for IC50: read-out: NET pIC50 (converted)
Protocol: as §1, §2, §3, §4

SERT [3] = molecular target: T1, SERT; assay: hSERT membrane radioligand binding assay (3H-citalopram); conditions: hSERT membranes (HEK-293), 1.0 nM 3H-citalopram; for Ki: read-out: SERT pKi (converted)
Protocol: (§5) Membrane radioligand binding assays were used to measure inhibition of labeled ligand (^3H-citalopram or ^3H-nisoxetine or ^3H-WIN35428) binding to membranes prepared from cells expressing the respective human recombinant transporter (hSERT or hNET or hDAT) in order to determine the pKi values of test compounds at the transporters.
(§6) Recombinant human embryonic kidney (HEK-293) derived cell lines stably transfected with hSERT or hNET, respectively, were grown in DMEM medium supplemented with 10% dialyzed FBS (for hSERT) or FBS (for hNET), 100 μg/ml penicillin, 100 μg/ml streptomycin, 2 mM L-glutamine and 250 μg/ml of the aminoglycoside antibiotic G418, in a 5% CO2 humidified incubator at 37° C. When cultures reached 80% confluence, the cells were washed thoroughly in PBS (without Ca^2+ and Mg^2+) and lifted with 5 mM EDTA in PBS. Cells were pelleted by centrifugation, resuspended in lysis buffer (10 mM Tris-HCl, pH7.5 containing 1 mM EDTA), homogenized, pelleted by centrifugation, then resuspended in 50 mM Tris-HCl, pH 7.5 and 10% sucrose at 4° C. Protein concentration of the membrane suspension was determined using a Bio-Rad Bradford Protein Assay kit. Membranes were snap frozen and stored at −80° C. Chinese hamster ovary membranes expressing hDAT (CHO-DAT) were purchased from PerkinElmer and stored at −80° C.
(§7) Binding assays were performed in a 96-well assay plate in a total volume of 200 μl assay buffer (50 mM Tris-HCl, 120 mM NaCl, 5 mM KCl, pH 7.4) with 0.5, 1, and 3 μg membrane protein, for SERT, NET and DAT, respectively.
(§8) Stock solutions (10 mM in DMSO) of test compound were prepared and serial dilutions made using Dilution Buffer (50 mM Tris-HCl, 120 mM NaCl, 5 mM KCl, pH 7.4, 0.1% BSA, 400 μM ascorbic acid). Non-specific radioligand binding was determined in the presence of 1 μM duloxetine, 1 μM desipramine or 10 μM GBR12909 (each in Dilution Buffer) for the hSERT, hNET or hDAT assays, respectively.
(§9) Following a 60 minute incubation at 22° C. (or a period sufficient to reach equilibrium), the membranes were harvested by rapid filtration over a 96-well UniFilter GF/B plate, pretreated with 0.3% polyethyleneimine, and washed 6 times with […] (50 mM Tris-HCl, 0.9% NaCl, pH 7.5 at 4° C.). Plates were dried overnight at room temperature, approximately […] of MicroScint™-20 (Perkin Elmer) added and bound radioactivity quantitated via liquid scintillation spectroscopy. Inhibition curves and saturation isotherms were analyzed using GraphPad Prism Software package (GraphPad Software, Inc., San Diego, Calif.). IC50 values were generated from concentration response curves using the Sigmoidal Dose Response (variable slope) algorithm in Prism GraphPad. Kd and Bmax values for the radioligand were generated from saturation isotherms using the Saturation Binding Global Fit algorithm in Prism GraphPad. pKi (negative decadic logarithm of Ki) values for test compounds were calculated from the best-fit IC50 values, and the Kd value of the radioligand, using the Cheng-Prusoff equation (Cheng & Prusoff (1973) Biochem. Pharmacol. 22(23):3099-3108): Ki=IC50/(1+[L]/Kd), where [L]=concentration radioligand.

NET [4] = molecular target: T2, NET; assay: hNET membrane radioligand binding assay (3H-nisoxetine); conditions: hNET membranes (HEK-293), 1.0 nM 3H-nisoxetine; for Ki: read-out: NET pKi (converted)
Protocol: as §5, §6, §7, §8, §9

T2 sequence (P23975 whole entry): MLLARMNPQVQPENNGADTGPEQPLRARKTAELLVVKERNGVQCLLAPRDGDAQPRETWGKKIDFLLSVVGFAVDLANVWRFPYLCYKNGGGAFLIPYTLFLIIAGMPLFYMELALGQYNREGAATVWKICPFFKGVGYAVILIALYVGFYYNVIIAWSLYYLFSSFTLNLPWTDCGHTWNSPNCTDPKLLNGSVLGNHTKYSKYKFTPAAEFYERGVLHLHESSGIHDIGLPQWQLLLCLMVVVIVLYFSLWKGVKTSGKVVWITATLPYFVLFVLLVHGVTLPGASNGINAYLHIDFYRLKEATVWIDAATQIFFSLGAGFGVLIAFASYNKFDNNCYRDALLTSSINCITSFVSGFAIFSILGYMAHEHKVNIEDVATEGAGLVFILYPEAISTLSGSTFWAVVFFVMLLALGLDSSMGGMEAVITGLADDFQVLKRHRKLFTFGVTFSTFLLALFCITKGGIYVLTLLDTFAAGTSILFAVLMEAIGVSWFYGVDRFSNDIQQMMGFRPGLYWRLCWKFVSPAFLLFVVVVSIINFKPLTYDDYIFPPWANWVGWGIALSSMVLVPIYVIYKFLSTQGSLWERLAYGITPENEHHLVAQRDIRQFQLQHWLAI
T1 sequence (P31645 whole entry): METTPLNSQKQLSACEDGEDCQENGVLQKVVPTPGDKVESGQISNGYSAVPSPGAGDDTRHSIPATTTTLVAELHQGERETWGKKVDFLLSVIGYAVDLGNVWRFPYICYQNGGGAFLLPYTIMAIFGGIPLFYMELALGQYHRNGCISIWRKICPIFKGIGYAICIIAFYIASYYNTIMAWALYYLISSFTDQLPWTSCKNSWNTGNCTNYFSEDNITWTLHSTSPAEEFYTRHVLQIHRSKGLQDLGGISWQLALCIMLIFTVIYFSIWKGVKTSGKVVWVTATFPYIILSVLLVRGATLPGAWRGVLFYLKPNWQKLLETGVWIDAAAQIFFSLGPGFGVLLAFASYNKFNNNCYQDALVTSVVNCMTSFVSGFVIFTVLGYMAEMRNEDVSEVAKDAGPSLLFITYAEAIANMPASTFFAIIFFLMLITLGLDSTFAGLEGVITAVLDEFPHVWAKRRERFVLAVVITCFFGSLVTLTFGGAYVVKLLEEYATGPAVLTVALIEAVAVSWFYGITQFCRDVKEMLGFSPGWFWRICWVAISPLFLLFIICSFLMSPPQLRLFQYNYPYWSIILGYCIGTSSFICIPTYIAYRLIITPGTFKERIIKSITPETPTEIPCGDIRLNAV

IC50 (SERT [1]) [nM] | IC50 (NET [2]) [nM] | Ki (SERT [3]) [nM] | Ki (NET [4]) [nM] | Structure (SMILES) | SERT pIC50 (SERT [1]) | NET pIC50 (NET [2]) | SERT pKi (SERT [3]) | NET pKi (NET [4])
≤ 100 | ≤ 10 | ≤ 10 | ≤ 10 | Fc1cccc(O[C@H](C2CCOCC2)[C@@H]2CCNC2)c1Cl [Example 13-16, (R)-3-[(R)-(2-Chloro-3-fluorophenoxy)(tetrahydropyran-4-yl)methyl]pyrrolidine] |  |  |  | 
≤ 10 | ≤ 10 | ≤ 10 | ≤ 10 | COC[C@H](Oc1ccc(Cl)cc1Cl)[C@H]1CCNC1 [Example 3, (S)-3-[(R)-1-(2,4-Dichlorophenoxy)-2-methoxyethyl]pyrrolidine] |  |  |  | 
≤ 10 | ≤ 100 | ≤ 10 | ≤ 100 | COC[C@@H](Oc1ccc(Cl)cc1Cl)[C@H]1CCNC1 [Example 4-23, (S)-3-[(S)-1-(2,4-Dichlorophenoxy)-2-methoxyethyl]pyrrolidine] |  |  |  | 
≤ 10 | ≤ 10 | ≤ 10 | ≤ 10 | Clc1cccc(O[C@H](C2CCOCC2)[C@H]2CCNC2)c1Cl [Example 13-12, (S)-3-[(R)-(2,3-Dichlorophenoxy)(tetrahydropyran-4-yl)methyl]pyrrolidine] |  |  |  | 
≤ 100 | ≤ 10 | ≤ 10 | ≤ 10 | COCC(Oc1ccc(Cl)cc1C)C1CCNC1 (centres unmarked) [Example 4-26, 3-[1-(4-Chloro-2-methylphenoxy)-2-methoxyethyl]pyrrolidine] |  |  |  | 
≤ 10 | ≤ 10 | ≤ 10 | ≤ 10 | COC[C@H](Oc1cccc(Cl)c1C)[C@H]1CCNC1 [Example 4-16, (S)-3-[(R)-1-(3-Chloro-2-methylphenoxy)-2-methoxyethyl]pyrrolidine] |  |  |  | 
 |  |  |  | COC[C@H](Oc1cccc(Cl)c1Cl)[C@H]1CCNC1 [Example 4-10] | ≧8.0 | ≧8.0 | ≧8.0 | ≧8.0
≤ 100 | ≤ 10 | ≤ 10 | ≤ 10 | COC[C@@H](Oc1cccc(Cl)c1C(F)(F)F)[C@H]1CCNC1 [Example 4-20, (S)-3-[(S)-1-(3-Chloro-2-trifluoromethylphenoxy)-2-methoxyethyl]pyrrolidine] |  |  |  | 
≤ 100 | ≤ 100 | ≤ 10 | ≤ 100 | Clc1ccccc1O[C@H](C1CCOCC1)[C@H]1CCNC1 [Example 13-4, (S)-3-[(R)-(2-Chlorophenoxy)(tetrahydropyran-4-yl)methyl]pyrrolidine] |  |  |  | 
≤ 1000 | ≤ 10 | ≤ 100 | ≤ 10 | Clc1ccccc1O[C@@H](C1CCOCC1)[C@H]1CCNC1 [Example 13-1, (S)-3-[(S)-(2-Chlorophenoxy)(tetrahydropyran-4-yl)methyl]pyrrolidine] |  |  |  | 
≤ 100 | ≤ 10 | ≤ 10 | ≤ 10 | COC[C@@H](Oc1cccc(Cl)c1C)[C@H]1CCNC1 [Example 4-15, (S)-3-[(S)-1-(3-Chloro-2-methylphenoxy)-2-methoxyethyl]pyrrolidine] |  |  |  | 
≤ 10 | ≤ 10 | ≤ 10 | ≤ 10 | COC[C@H](Oc1ccc(Cl)cc1C)[C@H]1CCNC1 [Example 4-25, (S)-3-[(R)-1-(4-Chloro-2-methylphenoxy)-2-methoxyethyl]pyrrolidine] |  |  |  | 
≤ 10 | ≤ 10 | ≤ 10 | ≤ 10 | Clc1ccc(O[C@H](C2CCOCC2)[C@@H]2CCNC2)cc1 [Example 13-9, (R)-3-[(R)-(4-Chlorophenoxy)(tetrahydropyran-4-yl)methyl]pyrrolidine] |  |  |  | 
≤ 100 | ≤ 10 | ≤ 10 | ≤ 10 | COCC(Oc1cccc(Cl)c1C(F)(F)F)C1CCNC1 (centres unmarked) [Example 4-18, 3-[1-(3-Chloro-2-trifluoromethylphenoxy)-2-methoxyethyl]pyrrolidine] |  |  |  | 
